Source: ChEMBL document CHEMBL1125662, “Inhibition of human placental aromatase by novel homologated 19-oxiranyl and 19-thiiranyl steroids” (J Med Chem, 1991)

Biological target: T1, Aromatase (Homo sapiens, UniProt P11511)
T1 sequence (P11511 whole entry): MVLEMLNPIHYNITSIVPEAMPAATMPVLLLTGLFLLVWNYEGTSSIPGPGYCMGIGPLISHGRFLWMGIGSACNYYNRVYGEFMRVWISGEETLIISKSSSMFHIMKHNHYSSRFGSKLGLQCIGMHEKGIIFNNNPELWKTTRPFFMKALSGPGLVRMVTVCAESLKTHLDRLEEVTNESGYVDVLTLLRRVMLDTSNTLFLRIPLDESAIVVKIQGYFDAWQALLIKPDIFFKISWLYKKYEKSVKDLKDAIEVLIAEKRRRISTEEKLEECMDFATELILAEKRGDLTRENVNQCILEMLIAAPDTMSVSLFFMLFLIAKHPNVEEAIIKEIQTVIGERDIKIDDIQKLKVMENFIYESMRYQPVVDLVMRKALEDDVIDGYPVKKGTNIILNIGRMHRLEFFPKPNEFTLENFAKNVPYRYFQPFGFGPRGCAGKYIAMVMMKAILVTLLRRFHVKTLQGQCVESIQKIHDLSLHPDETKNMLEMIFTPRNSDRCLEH
Description: Inhibition of human placental Cytochrome P450 19A1

| SMILES | Ki [nM] |
| --- | --- |
| C[C@]12CC[C@H]3[C@@H](CCC4=CC(=O)CC[C@@]43C[C@@H]3CO3)[C@@H]1CCC2=O | 753 |
| C[C@]12CC[C@H]3[C@@H](CCC4=CC(=O)CC[C@@]43C[C@H]3CO3)[C@@H]1CCC2=O | 86 |
| C[C@]12CC[C@H]3[C@@H](CCC4=CC(=O)CC[C@@]43C[C@H]3CS3)[C@@H]1CCC2=O | 22 |
| C[C@]12CC[C@H]3[C@@H](CCC4=CC(=O)CC[C@@]43C[C@@H]3CS3)[C@@H]1CCC2=O | 206 |
